Assay results as given in ChEMBL document CHEMBL1129776, “Design of dual-acting thromboxane antagonist-synthase inhibitors by a mutual prodrug approach” (Bioorg Med Chem Lett, 1996).
“And” between values parts separate entries of the source, which are not always exact repeats. Equal entries are not always repeated.

Experiments:
Canis familiaris [1] = assay: Compound was tested for plasma concentration ratio at 8 hr in conscious dogs at specified time intervals at a dose of 0.05 mg/kg.; assay type: functional, Canis lupus familiaris
Thromboxane-A synthase = molecular target: T1, Thromboxane-A synthase (Homo sapiens, UniProt P24557); assay: Compound was tested for thromboxane TXA2 synthase inhibitory activity using human platelet
T1 sequence (P24557 whole entry): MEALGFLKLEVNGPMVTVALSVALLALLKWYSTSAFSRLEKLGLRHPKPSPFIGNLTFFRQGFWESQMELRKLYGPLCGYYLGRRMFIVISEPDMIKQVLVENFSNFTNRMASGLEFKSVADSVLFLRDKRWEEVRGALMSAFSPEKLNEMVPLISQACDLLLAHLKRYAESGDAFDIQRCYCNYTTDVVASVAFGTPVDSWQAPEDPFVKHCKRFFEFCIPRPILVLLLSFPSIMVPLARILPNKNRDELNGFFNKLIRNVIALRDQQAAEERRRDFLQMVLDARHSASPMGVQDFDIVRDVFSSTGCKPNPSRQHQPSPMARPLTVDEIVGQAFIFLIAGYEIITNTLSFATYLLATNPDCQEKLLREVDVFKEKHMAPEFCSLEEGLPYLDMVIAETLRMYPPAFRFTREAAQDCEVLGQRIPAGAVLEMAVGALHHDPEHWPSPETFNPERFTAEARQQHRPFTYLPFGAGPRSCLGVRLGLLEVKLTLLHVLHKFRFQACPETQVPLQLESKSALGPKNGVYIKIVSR

Canis familiaris [2] = assay: Compound was tested for plasma concentration ratio at 2 hr in conscious dogs at specified time intervals at a dose of 0.05 mg/kg.; assay type: functional, Canis lupus familiaris
Thromboxane A2 receptor = molecular target: T2, Thromboxane A2 receptor (Homo sapiens, UniProt P21731); assay: Thromboxane (TXA2) receptor antagonist activity using human platelet; assay type: functional; conditions: for Kb: read-out: pA2 (converted)
T2 sequence (P21731 whole entry): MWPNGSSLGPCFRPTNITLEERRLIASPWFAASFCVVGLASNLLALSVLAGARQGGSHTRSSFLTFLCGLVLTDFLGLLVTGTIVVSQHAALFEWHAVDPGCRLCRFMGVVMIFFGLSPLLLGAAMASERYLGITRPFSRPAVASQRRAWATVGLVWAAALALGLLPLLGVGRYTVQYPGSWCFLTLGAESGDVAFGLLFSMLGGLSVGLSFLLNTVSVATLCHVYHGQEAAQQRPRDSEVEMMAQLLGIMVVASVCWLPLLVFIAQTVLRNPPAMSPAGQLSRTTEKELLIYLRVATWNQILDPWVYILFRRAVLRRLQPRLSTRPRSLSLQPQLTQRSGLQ

Canis familiaris [3] = assay: Compound was tested ex vivo for plasma concentration ratio at 2 hr in conscious dogs at specified time intervals at a dose of 0.05 mg/kg.; assay type: functional, Canis lupus familiaris
Canis familiaris [4] = assay: Compound was tested ex vivo for plasma concentration ratio at 8 hr in conscious dogs at specified time intervals at a dose of 0.05 mg/kg.; assay type: functional, Canis lupus familiaris
[5] = molecular target: T3, Thromboxane-A synthase (Homo sapiens) (UniProt P24557); assay: Compound was evaluated for inhibition of TXA2 synthase by measuring collagen stimulated TXB2 production in the blood samples after 2 hr time at a dose of 0.05 mg/kg; assay type: functional, organism-based; design: dose 0.05 mg/kg; conditions: Canis lupus familiaris
T3 sequence (whole entry): T1 sequence (P24557 whole entry)

[6] = molecular target: T3, Thromboxane-A synthase (Homo sapiens); assay: Compound was evaluated for inhibition of TXA2 synthase by measuring collagen stimulated TXB2 production in the blood samples after 8 hr time at a dose of 0.05 mg/kg; assay type: functional, organism-based; design: dose 0.05 mg/kg; conditions: Canis lupus familiaris
[7] = molecular target: T3, Thromboxane-A synthase (Homo sapiens); assay: Compound was evaluated for inhibition of TXA2 synthase by measuring collagen stimulated TXB2 production in the blood samples after 2 hr time at a dose of 1.0 mg/kg; assay type: functional, organism-based; design: dose 1 mg/kg; conditions: Canis lupus familiaris
[8] = molecular target: T3, Thromboxane-A synthase (Homo sapiens); assay: (§1) Compound was evaluated for inhibition of TXA2 synthase by measuring collagen stimulated TXB2 production in the blood samples after 8 hr time at a dose of 1.0 mg/kg; assay type: functional, organism-based; design: dose 1 mg/kg; conditions: Canis lupus familiaris
Canis familiaris [9] = assay: Compound was tested for plasma concentration ratio at 2 hr in conscious dogs at specified time intervals at a dose of 1.0 mg/kg.; assay type: functional, Canis lupus familiaris
[10] = molecular target: T3, Thromboxane-A synthase (Homo sapiens); assay: as §1; assay type: functional, organism-based; design: dose 1 mg/kg; conditions: Canis lupus familiaris; remark: listed apart in the source
Canis familiaris [11] = assay: Compound was tested for plasma concentration ratio at 8 hr in conscious dogs at specified time intervals at a dose of 1.0 mg/kg.; assay type: functional, Canis lupus familiaris

Structure (SMILES) | IC50 (Thromboxane-A synthase) | Kb (Thromboxane A2 receptor) | inhibition [5] | inhibition [6] | also measured
N#Cc1ccc([C@H]2OC[C@@H](C/C=C\CCC(=O)NCCCCCCNC(=O)CC/C=C\C[C@@H]3CO[C@H](c4ccc(C#N)cc4)O[C@@H]3c3ccccc3O)[C@@H](c3cccnc3)O2)cc1 | > 10 µM | 10 µM |  |  | 
N#Cc1ccc([C@H]2OC[C@@H](C/C=C\CCC(=O)O)[C@@H](c3ccccc3O)O2)cc1 | > 10 µM | 0.00501 µM | > 50% | > 50% | Ratio (Canis familiaris [3]): 60; Ratio (Canis familiaris [4]): 35
N#Cc1ccc([C@H]2OC[C@@H](C/C=C\CCC(=O)OCCCCCCOC(=O)CC/C=C\C[C@@H]3CO[C@H](c4ccc(C#N)cc4)O[C@@H]3c3ccccc3O)[C@@H](c3cccnc3)O2)cc1 | > 10 µM | 10 µM |  |  | 
N#Cc1ccc([C@H]2OC[C@@H](C/C=C\CCC(=O)O)[C@@H](c3cccnc3)O2)cc1 | 0.02 µM | 1.26 µM |  |  | inhibition [7]: 97% and 84%; inhibition [8]: 93%; Ratio (Canis familiaris [9]): 1.4; inhibition [10]: 84%; Ratio (Canis familiaris [11]): 1.3
N#Cc1ccc([C@H]2OC[C@@H](C/C=C\CCC(=O)NCCNC(=O)CC/C=C\C[C@@H]3CO[C@H](c4ccc(C#N)cc4)O[C@@H]3c3ccccc3O)[C@@H](c3cccnc3)O2)cc1 | > 10 µM | 10 µM |  |  | 
O=C(O)CC/C=C\C[C@@H]1CO[C@H](c2ccccc2Cl)O[C@@H]1c1ccccc1O | > 10 µM |  | > 50% | > 50% | 

Further lines, with some results ahead:

IC50 (Thromboxane-A synthase) | Kb (Thromboxane A2 receptor) | inhibition [5] | inhibition [6] | Structure (SMILES) | also measured
> 10 µM |  |  |  | N#Cc1ccc([C@H]2OC[C@@H](C/C=C\CCC(=O)Oc3ccccc3OC(=O)CC/C=C\C[C@@H]3CO[C@H](c4ccccc4Cl)O[C@@H]3c3ccccc3O)[C@@H](c3cccnc3)O2)cc1 (stereo in doubt; 15) [listing 1 of 2 here] | Ratio (Canis familiaris [1]; 0.05 mg/kg): 170; Ratio (Canis familiaris [2]; 0.05 mg/kg): 140; pA2 (Thromboxane A2 receptor): 5
> 10 µM | 10 µM |  |  | N#Cc1ccc([C@H]2OC[C@@H](C/C=C\CCC(=O)Oc3ccccc3OC(=O)CC/C=C\C[C@@H]3CO[C@H](c4ccccc4Cl)O[C@@H]3c3ccccc3O)[C@@H](c3cccnc3)O2)cc1 (stereo in doubt; 16 (-)) [listing 1 of 2 here] | Ratio (Canis familiaris [1]; 0.05 mg/kg): 150; Ratio (Canis familiaris [2]; 0.05 mg/kg): 35
 |  | 31% | 64% | N#Cc1ccc([C@H]2OC[C@@H](C/C=C\CCC(=O)Oc3ccccc3OC(=O)CC/C=C\C[C@@H]3CO[C@H](c4ccccc4Cl)O[C@@H]3c3ccccc3O)[C@@H](c3cccnc3)O2)cc1 (stereo in doubt; 16 (-)) [listing 2 of 2 here] | 
> 10 µM | 10 µM | 68% | < 50% | N#Cc1ccc([C@H]2OC[C@@H](C/C=C\CCC(=O)Oc3ccccc3OC(=O)CC/C=C\C[C@@H]3CO[C@H](c4ccc(C#N)cc4)O[C@@H]3c3ccccc3O)[C@@H](c3cccnc3)O2)cc1 | Ratio (Canis familiaris [1]): 283; Ratio (Canis familiaris [2]): 587
> 10 µM | 10 µM |  |  | N#Cc1ccc([C@H]2OC[C@@H](C/C=C\CCC(=O)Oc3ccc(OC(=O)CC/C=C\C[C@@H]4CO[C@H](c5ccc(C#N)cc5)O[C@@H]4c4ccccc4O)cc3)[C@@H](c3cccnc3)O2)cc1 | 
 |  | 54% | 57% | N#Cc1ccc([C@H]2OC[C@@H](C/C=C\CCC(=O)Oc3ccccc3OC(=O)CC/C=C\C[C@@H]3CO[C@H](c4ccccc4Cl)O[C@@H]3c3ccccc3O)[C@@H](c3cccnc3)O2)cc1 (stereo in doubt; 15) [listing 2 of 2 here] | 
> 10 µM | > 10 µM |  |  | N#Cc1ccc([C@H]2OC[C@@H](C/C=C\CCC(=O)OCCOC(=O)CC/C=C\C[C@@H]3CO[C@H](c4ccc(C#N)cc4)O[C@@H]3c3ccccc3O)[C@@H](c3cccnc3)O2)cc1 | 
